Experimental data from PMC11834790, “Pyridine indole hybrids as novel potent CYP17A1 inhibitors” (Journal of Enzyme Inhibition and Medicinal Chemistry, 2025).
“And” between values parts separate entries of the source, which are not always exact repeats. Identical values can stand only once.

Columns and labels:
CYP17A1 [1] = target: T1, CYP17A1 (Homo sapiens, UniProt P05093); assay: CYP17A1 17,20-lyase activity assay in NCI-H295R cells (tritiated water release); assay type: cell-based; conditions: dose-response, read-out: IC50, inhibition of 17,20-lyase activity
T1 construct: immortalised human adrenal cells expressing CYP17A1 and other steroidogenic enzymes; endogenous in cells; host or cells: NCI-H295R (human adrenal cells)
T1 sequence (P05093 1-508): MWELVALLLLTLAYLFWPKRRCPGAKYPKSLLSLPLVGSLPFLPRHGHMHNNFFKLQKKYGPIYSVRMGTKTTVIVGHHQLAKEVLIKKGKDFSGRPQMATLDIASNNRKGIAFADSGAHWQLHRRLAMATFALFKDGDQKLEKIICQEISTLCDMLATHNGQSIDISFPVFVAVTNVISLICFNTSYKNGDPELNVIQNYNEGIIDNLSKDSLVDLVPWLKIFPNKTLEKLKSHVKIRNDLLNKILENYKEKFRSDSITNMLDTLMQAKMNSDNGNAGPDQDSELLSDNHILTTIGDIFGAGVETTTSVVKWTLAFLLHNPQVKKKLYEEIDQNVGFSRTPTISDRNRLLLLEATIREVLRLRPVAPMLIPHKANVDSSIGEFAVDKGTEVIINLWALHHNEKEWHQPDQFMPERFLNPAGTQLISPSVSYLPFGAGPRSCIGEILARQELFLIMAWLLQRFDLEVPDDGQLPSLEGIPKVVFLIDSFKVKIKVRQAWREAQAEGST

DU-145 cells = assay: Scratch (wound healing) assay; assay type: cell-based, human; conditions: DU-145, 10 µM; for Wound area, Mean (area remaining open): 24 h, DMSO 170.5; for Effect on cell migration (in words): after 24 h
Experimental: Human prostate cancer DU-145 cells show strong cell proliferation and therefore, are an established model for assay of antiproliferative effects of test compounds. DU-145 cells were plated in 24-well plates at 50 000 cells per well and grown until they reached 85% confluence. To inhibit cell proliferation, cells were treated with 5 µg/mL mitomycin for 2 h. A wound was created using a 10 µL pipette tip. The cells were then exposed to drugs at a concentration of 10 µM, while control wells received DMSO. Wound closure was observed and photographed using an optical microscope after 24 h. Images were analysed using ImageJ software (version 1.54j).

[2] = system: adrenal steroidogenesis in NCI-H295R cells; assay: Steroid profiling by LC-MS in NCI-H295R cells; assay type: cell-based, human; conditions: for Androsterone, Mean / Testosterone, Mean / Progesterone, Mean / Androstendione, Mean / 17a-Hydroxyprogesterone, Mean / DHEA, Mean / 11-Deoxycortisol, Mean / 11-Deoxycorticosterone, Mean / Pregnenolone, Mean / Cortisone, Mean / DHEA-S, Mean / Dihydrotestosterone, Mean: compounds at 10 µM; for Androsterone, Mean / Testosterone, Mean / Progesterone, Mean / Androstendione, Mean / 17a-Hydroxyprogesterone, Mean / DHEA, Mean / 11-Deoxycortisol, Mean / 11-Deoxycorticosterone, Mean / Pregnenolone, Mean: 1 µM pregnenolone; for Androsterone, Mean / Cortisone, Mean / DHEA-S, Mean / Dihydrotestosterone, Mean: DMSO 0; for Testosterone, Mean: DMSO 0.4785; for Progesterone, Mean: DMSO 4.814; for Androstendione, Mean: DMSO 7.577; for 17a-Hydroxyprogesterone, Mean: DMSO 9.967; for DHEA, Mean: DMSO 15.119; for 11-Deoxycortisol, Mean: DMSO 26.594; for 11-Deoxycorticosterone, Mean: DMSO 28.1555; for Pregnenolone, Mean: DMSO 2043.56; for Cortisone, Mean / DHEA-S, Mean / Dihydrotestosterone, Mean: not detected within the experimental timeframe
Experimental: (§1) Steroid quantification was performed using Liquid Chromatography–Mass Spectrometry (LC-MS), following established protocols to study effect of compounds on adrenal steroidogenesis. Human adrenal NCI-H295R cells were seeded in 12-well plates at 500 000 cells per well and treated with fresh growth medium containing the test compounds for 4 h. Subsequently, 1 µM pregnenolone was added and incubated for an additional 4 h. Steroids were extracted from 500 µL aliquots of cell media, separated, and quantified according to the referenced methodology.

CYP17A1 [3] = target: T1, CYP17A1; assay: CYP17A1 activity calculated as ratios of steroid products to substrates (LC-MS); assay type: cell-based; conditions: normalised to DMSO-treated cells (100%), NCI-H295R
Experimental: as §1
To provide deeper insights into CYP17A1 inhibition, the enzyme activity was calculated using ratios of steroid products to substrates, focusing on dual activities of CYP17A1 (Figure 4(B)).

CYP17A1 [4] = target: T1, CYP17A1; assay: CYP17A1 17,20-lyase activity assay in NCI-H295R cells (tritiated water release); assay type: cell-based; conditions: 4 h, DMSO = 100, read-out: CYP17A1 Lyase activity, Mean (percentage of activity remaining relative to the control)
Experimental: (§2) Human adrenal NCI-H295R cells are an established model for assay of CYP17A1 activities. The NCI-H295R cells were seeded in 12-well plates at 500 000 cells per well and incubated overnight. On the following day, 10 µM of test compounds were added to the wells with fresh medium and incubated for 4 h. Abiraterone was used as a reference, and DMSO was included as a control. For assessing CYP17A1 hydroxylase activity, cells were treated with [^14C]-Progesterone at 10 000 cpm/1 µM per well. Trilostane was added prior to the test compounds and substrate to inhibit 3β-hydroxysteroid dehydrogenase activity so that a clean assay of only CYP17A1 activity could be performed[20]^,[27]^,[28]. Radiolabeled steroids were extracted from the media using a mixture of ethyl acetate and isooctane (1:1 v/v) and separated by Thin Layer Chromatography (TLC) on silica gel-coated aluminium plates (Supelco® Analytics, Sigma-Aldrich Chemie GmbH, Taufkirchen, Germany). TLC spots were visualised on a phosphor screen and detected by autoradiography using a Typhoon™ FLA-7000 PhosphorImager (GE Healthcare, Uppsala, Sweden). Radioactivity was quantified with ImageQuant™ TL analysis software (GE Healthcare Europe GmbH, Freiburg, Germany), and enzyme activity was expressed as the percentage of radioactivity incorporated into the product relative to the total radioactivity. For CYP17A1 lyase activity, cells were exposed to 50 000 cpm/1 µM [21-^3H]-17α-hydroxypregnenolone per well under similar conditions. The tritiated water release assay was used to measure the conversion of 17OH-Pregnenolone to DHEA. Steroids in the media were precipitated using a 5% activated charcoal/0.5% dextran solution. Enzyme activity was evaluated based on the water-soluble tritiated by-product formed in equimolar amounts with DHEA, with radioactivity in the aqueous phase quantified by liquid scintillation counting (MicroBeta2® Plate Counter, PerkinElmer Inc., Waltham, MA, USA). Percent inhibition was calculated relative to control samples.

CYP17A1 [5] = target: T1, CYP17A1; assay: CYP17A1 17α-hydroxylase activity assay in NCI-H295R cells ([14C]-progesterone, TLC); assay type: cell-based; conditions: 4 h, DMSO = 100, read-out: CYP17A1 Hydroxylase activity, Mean (percentage of activity remaining relative to the control)
Experimental: as §2

VCaP cells = assay: Alamar blue (resazurin) cell viability, VCaP; assay type: cell-based, human; conditions: for viability at 10 µM: Homo sapiens, VCaP, 24 h
Experimental: (§3) LNCaP and RWPE-1 cells were plated in 96-well plates at 10 000 cells per well and incubated overnight at 37 °C with 5% CO2. VCaP cells were plated at 12 000 cells per well under the same conditions. After 24 h, the medium was replaced with fresh medium containing the compounds or abiraterone at a final concentration of 10 µM. Cells were incubated for an additional 24 and 48 h. Cell viability was measured using the Alamar Blue assay. Post-incubation, 0.05 mg/mL Alamar Blue solution in phosphate-buffered saline (PBS) was added to each well. The plates were incubated in the dark at 37 °C for 4 h, and fluorescence was measured at an excitation wavelength of 550 nm and an emission wavelength of 590 nm. Cell viability was calculated relative to control sample treated with DMSO. All experiments were conducted in triplicate.

LNCaP cells = assay: Alamar blue (resazurin) cell viability, LNCaP; assay type: cell-based, human; conditions: 10 µM; for Cytotoxic effect on LNCaP cells (in words): 24 and 48 h
Experimental: as §3

[6] = Alamar blue (resazurin) cell viability, RWPE-1; assay type: cell-based; conditions: human, RWPE-1 cells, 48 h, of the control
Experimental: as §3

Row | Compound | IC50 (CYP17A1 [1]) | Wound area, Mean (area remaining open) (DU-145 cells) | Effect on cell migration (in words) (DU-145 cells) | Androsterone, Mean [2] | Testosterone, Mean [2] | Progesterone, Mean [2] | Androstendione, Mean [2] | 17a-Hydroxyprogesterone, Mean [2] | DHEA, Mean [2] | 11-Deoxycortisol, Mean [2] | 11-Deoxycorticosterone, Mean [2] | Pregnenolone, Mean [2] | Cortisone, Mean [2] | DHEA-S, Mean [2] | Dihydrotestosterone, Mean [2] | 17α-Hydroxylase activity (ratios of steroid products to substrates) (CYP17A1 [3]) | remaining activity at 10 µM (CYP17A1 [4]) | remaining activity at 10 µM (CYP17A1 [5]) | viability at 10 µM (VCaP cells) | Cytotoxic effect on LNCaP cells (in words) (LNCaP cells) | further results
1 | CCCn1nnc2cc(-c3cc(-c4ccncc4)c(C#N)c(N)n3)ccc21 [Compound 1, 2-Amino-6–(1-propyl-1H-benzo[d][1,2,3]triazol-5-yl)-[4,4′-bipyridine]-3-carbonitrile] | 0.01 µM | 731.5 Pixels^2 | less pronounced effect comparable to that exerted by abiraterone | 0 nmol/L | 0.4455 nmol/L | 27.8235 nmol/L | 1.564 nmol/L | 0.977 nmol/L | 1.1015 nmol/L | 5.22 nmol/L | 41.58 nmol/L and 41.577 nmol/L | 2228.179 nmol/L | 0 nmol/L | 0 nmol/L | 0 nmol/L | 1.8% | 46.3% | 45% | – | – | Combined 17α-hydroxylase and 17,20-lyase activity (ratios of steroid products to substrates) (CYP17A1 [3]): 6.6%
2 | N#Cc1c(-c2ccccc2)cc(-c2ccncc2)c(C#N)c1N [Compound 6, 3-Amino-5-(pyridin-4-yl)-[1,1′-biphenyl]-2,4-dicarbonitrile] | – | – | – | – | – | – | – | – | – | – | – | – | – | – | – | – | 57.4% | 53% | < 50% | marked reduction in viability | –
3 | c1cc(-c2ccncc2)cc(-c2ccc3[nH]ccc3c2)c1 [Compound 14, 5-(3-(Pyridin-4-yl)phenyl)-1H-indole] | 0.026 µM | 7074 Pixels^2 | significant inhibition of cell migration | 0.61 nmol/L | 0.4105 nmol/L | 51.7765 nmol/L | 1.359 nmol/L | 1.6245 nmol/L | 0.6075 nmol/L | 3.75 nmol/L and 3.7485 nmol/L | 3.518 nmol/L | 2377.463 nmol/L | 0 nmol/L | 0 nmol/L | 0 nmol/L | 1.5% | 23.9% | 35% | – | – | Effect on LNCaP cell viability (in words) (LNCaP cells; 48 h): strong effect
4 | c1cncc(-c2cccc(-c3ccc4[nH]ccc4c3)c2)c1 [Compound 12, 5-(3-(Pyridin-3-yl)phenyl)-1H-indole] | – | – | – | – | – | – | – | – | – | – | – | – | – | – | – | – | 48.7% | 46% | – | – | viability at 48 h, 10 µM [6]: 85%
5 | N#Cc1c(-c2ccncc2)cc(-c2ccc3[nH]ccc3c2)nc1N [Compound 5, 2-Amino-6-(1H-indol-5-yl)-[4,4′-bipyridine]-3-carbonitrile] | 0.025 µM | 1916 Pixels^2 | less pronounced effect comparable to that exerted by abiraterone | 0.009 nmol/L | 0.5215 nmol/L | 39.9815 nmol/L | 1.4095 nmol/L | 1.3865 nmol/L | 0.748 nmol/L | 4.0415 nmol/L | 5.503 nmol/L | 2578.994 nmol/L | 0 nmol/L | 0 nmol/L | 0 nmol/L | 1.7% | 39.7% | 20% | < 50% | marked reduction in viability | –
6 | N#Cc1c(-c2ccncc2)cc(-c2ccc3[nH]ccc3c2)c(C#N)c1N [Compound 11, 2-Amino-4-(1H-indol-5-yl)-6-(pyridin-4-yl)isophthalonitrile] | 0.004 µM | 8703 Pixels^2 | significant inhibition of cell migration | 1.176 nmol/L | 0.4775 nmol/L | 67.3265 nmol/L | 1.3725 nmol/L | 1.3575 nmol/L | 1.36 nmol/L and 1.3585 nmol/L | 3.942 nmol/L | 3.8565 nmol/L | 2465.505 nmol/L | 0 nmol/L | 0 nmol/L | 0 nmol/L | 1% | 49.2% | 10% | – | did not exhibit high cytotoxic effects | Reduction of DHEA level ([2]; vs DMSO control): 11 fold; Cytotoxic effect on VCaP cells (in words) (VCaP cells; 10 µM, 24 and 48 h): did not exhibit high cytotoxic effects
